By IC50 is commonly meant the point on the concentration scale where inhibition reaches its midpoint.

From patent US20240116985A1, “STAPLED PEPTIDES AND METHODS THEREOF” (priority 2020, published 2024) come the findings set out here.

The assay concerns the target T1, full-length beta-Catenin (Uniprot ID P35222) (Homo sapiens, UniProt P35222).
T1 construct: 10 nM full-length beta-Catenin (Uniprot ID P35222)
T1 sequence (P35222 1-781): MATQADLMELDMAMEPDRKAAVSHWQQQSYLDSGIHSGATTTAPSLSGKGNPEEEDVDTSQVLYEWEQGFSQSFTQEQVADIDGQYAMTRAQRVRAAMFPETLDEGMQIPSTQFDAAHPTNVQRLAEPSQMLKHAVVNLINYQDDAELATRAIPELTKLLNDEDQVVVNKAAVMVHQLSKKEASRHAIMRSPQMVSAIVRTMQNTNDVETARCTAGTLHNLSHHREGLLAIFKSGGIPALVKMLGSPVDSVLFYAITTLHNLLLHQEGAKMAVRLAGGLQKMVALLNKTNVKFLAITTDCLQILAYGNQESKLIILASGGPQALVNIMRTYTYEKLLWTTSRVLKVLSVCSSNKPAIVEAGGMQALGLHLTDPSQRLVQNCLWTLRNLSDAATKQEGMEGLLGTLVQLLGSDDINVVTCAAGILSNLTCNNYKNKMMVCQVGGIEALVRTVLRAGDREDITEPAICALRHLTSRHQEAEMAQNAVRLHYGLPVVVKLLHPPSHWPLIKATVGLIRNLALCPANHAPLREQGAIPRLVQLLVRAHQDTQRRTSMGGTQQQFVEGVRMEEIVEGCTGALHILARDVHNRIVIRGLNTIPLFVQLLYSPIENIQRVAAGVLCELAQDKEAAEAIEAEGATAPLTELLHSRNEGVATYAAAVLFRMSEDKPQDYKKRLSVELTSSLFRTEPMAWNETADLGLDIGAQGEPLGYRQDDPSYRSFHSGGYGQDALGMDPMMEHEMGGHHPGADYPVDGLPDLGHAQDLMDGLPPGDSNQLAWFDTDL
Briefly: Fluorescence polarization IC50 (beta-catenin / 5FAM-TCF4 10-53 competition). It counts as binding. Particulars: fluorescence polarization; read-out: beta-Catenin FP IC50.
With `CC(=O)N1CCC[C@]12CC=CCCCC1(CCCC=CCCCOC(=O)N3CC[C@@](C(=O)N[C@@H](Cc4ccsc4)C(=O)N[C@@H](Cc4csc5ccccc45)C(=O)N[C@@H](Cc4c[nH]cn4)C(N)=O)(C3)NC(=O)[C@H](CCC(N)=O)NC(=O)[C@H](Cc3ccccc3)NC(=O)[C@H](C)NC(=O)[C@H](C)NC(=O)[C@H](CC(=O)O)NC(=O)[C@H](CC(=O)O)NC1=O)NC(=O)[C@H](CC(C)(C)C)NC(=O)[C@H](CC(=O)O)NC2=O` (stereo partly drawn) [I-1459, Ac-PL3-Asp-Npg-B5-Asp-Asp-Ala-Ala-Phe-Gln-PyrS2-3Thi-BztA-His-NH2], the IC50 stood at 0.005 µM.
For `CC(=O)N1CCC[C@]12CC=CCCCC1(CCCC=CCCCOC(=O)N3CC[C@@](C(=O)N[C@@H](Cc4ccsc4)C(=O)N[C@@H](Cc4csc5ccccc45)C(=O)N[C@@H](Cc4c[nH]cn4)C(N)=O)(C3)NC(=O)[C@H](CCC(N)=O)NC(=O)[C@H](Cc3ccccc3)NC(=O)[C@H](C)NC(=O)[C@H](C)NC(=O)[C@H](CC(=O)O)NC(=O)[C@H](CC(=O)O)NC1=O)NC(=O)[C@H](CC(C)(C)C)NC(=O)[C@H](CC(=O)O)NC2=O` (stereo partly drawn) [I-1460, Ac-PL3-Asp-Npg-B5-Asp-Asp-Ala-Ala-Phe-Gln-PyrS2-3Thi-BztA-His-NH2] the value was 0.007 µM; for `CC(=O)N1CCC[C@]12CC=CCCCC1(CCCC=CCCCOC(=O)N3CC[C@@](C(=O)N[C@@H](Cc4ccccc4Cl)C(=O)N[C@@H](Cc4csc5ccccc45)C(=O)N[C@@H](CCC(N)=O)C(N)=O)(C3)NC(=O)[C@H]([C@@H](C)O)NC(=O)[C@H](Cc3ccccc3)NC(=O)[C@H](C)NC(=O)[C@H](C)NC(=O)[C@H](CN(CC(=O)O)CC(F)(F)F)NC(=O)[C@H](CC(=O)O)NC1=O)NC(=O)[C@H](CC(C)(C)C)NC(=O)[C@H](CC(=O)O)NC2=O` (stereo partly drawn) [I-1463, Ac-PL3-Asp-Npg-B5-Asp-TfeGA-Ala-Ala-Phe-Thr-PyrS2-2C1F-BztA-Gln-NH2], 0.018 µM; for `CC(=O)N1CCC[C@]12CCCCCCC1(CCCCCCCCOC(=O)N3CC[C@@](C(=O)N[C@@H](Cc4ccccc4Cl)C(=O)N[C@@H](Cc4csc5ccccc45)C(=O)N[C@@H](CCC(N)=O)C(N)=O)(C3)NC(=O)[C@H](CC(N)=O)NC(=O)[C@H](Cc3ccccc3)NC(=O)[C@H](C)NC(=O)[C@H](C)NC(=O)[C@H](CC(=O)O)NC(=O)[C@H](CC(=O)O)NC1=O)NC(=O)[C@H](CC(C)(C)C)NC(=O)[C@H](CC(=O)O)NC2=O` (stereo partly drawn) [I-1464, Ac-PL3-Asp-Npg-B5-Asp-Asp-Ala-Ala-Phe-Asn-PyrS2-2C1F-BztA-Gln-NH2], 0.168 µM.
For `CC(=O)N1CCC[C@]12CC=CCCCC1(CCCC=CCCCOC(=O)N3CC[C@@](C(=O)N[C@@H](Cc4ccsc4)C(=O)N[C@@H](Cc4csc5ccccc45)C(=O)N[C@@H](CCC(N)=O)C(N)=O)(C3)NC(=O)[C@H](CC(C)C)NC(=O)[C@H](Cc3ccccc3)NC(=O)[C@H](C)NC(=O)[C@H](C)NC(=O)[C@H](CC(=O)O)NC(=O)[C@H](CC(=O)O)NC1=O)NC(=O)[C@H](CCCCNC(=O)CC[C@@H](C)[C@H]1CC[C@H]3[C@@H]4CC[C@@H]5C[C@H](O)CC[C@]5(C)[C@H]4CC[C@]13C)NC(=O)[C@H](CC(=O)O)NC2=O` (stereo partly drawn) [I-1469, Ac-PL3-Asp-[lithocholate]-Lys-B5-Asp-Asp-Ala-Ala-Phe-Leu-PyrS2-3Thi-BztA-Gln-NH2] the value was 0.095 µM.
For `CC(=O)N1CCC[C@]12CC=CCCCC1(CCCC=CCCCOC(=O)N3CC[C@@](C(=O)N[C@@H](Cc4ccsc4)C(=O)N[C@@H](Cc4csc5ccccc45)C(=O)N[C@@H](CCC(N)=O)C(N)=O)(C3)NC(=O)[C@H](CC(C)C)NC(=O)[C@H](Cc3ccccc3)NC(=O)[C@H](CCCCNC(=O)CC[C@@H](C)[C@H]3CC[C@H]4[C@@H]5CC[C@@H]6C[C@H](O)CC[C@]6(C)[C@H]5CC[C@]34C)NC(=O)[C@H](C)NC(=O)[C@H](CC(=O)O)NC(=O)[C@H](CC(=O)O)NC1=O)NC(=O)[C@H](CC(C)(C)C)NC(=O)[C@H](CC(=O)O)NC2=O` (stereo partly drawn) [I-1473, Ac-PL3-Asp-Npg-B5-Asp-Asp-Ala-[lithocholate]-Lys-Phe-Leu-PyrS2-3Thi-BztA-Gln-NH2] the value was 0.224 µM; for `CC(=O)N1CCC[C@]12CC=CCCCC1(CCCC=CCCCOC(=O)N3CC[C@@](C(=O)N[C@@H](Cc4ccsc4)C(=O)N[C@@H](Cc4csc5ccccc45)C(=O)N[C@@H](CCC(N)=O)C(N)=O)(C3)NC(=O)[C@H](CC(C)C)NC(=O)[C@H](Cc3ccccc3)NC(=O)[C@H](CCCCNC(=O)C34CC5(C)CC(C)(CC(C)(C5)C3)C4)NC(=O)[C@H](C)NC(=O)[C@H](CC(=O)O)NC(=O)[C@H](CC(=O)O)NC1=O)NC(=O)[C@H](CC(C)(C)C)NC(=O)[C@H](CC(=O)O)NC2=O` (stereo partly drawn) [I-1475, Ac-PL3-Asp-Npg-B5-Asp-Asp-Ala-[Me3AdamantC]-Lys-Phe-Leu-PyrS2-3Thi-BztA-Gln-NH2], 0.113 µM; for `CC(=O)N1CCC[C@]12CC=CCCCC1(CCCC=CCCCOC(=O)N3CC[C@@](C(=O)N[C@@H](Cc4ccsc4)C(=O)N[C@@H](Cc4csc5ccccc45)C(=O)N[C@@H](CCC(N)=O)C(=O)N[C@@H](CCCCNC(=O)CC[C@@H](C)[C@H]4CC[C@H]5[C@@H]6CC[C@@H]7C[C@H](O)CC[C@]7(C)[C@H]6CC[C@]45C)C(N)=O)(C3)NC(=O)[C@H](CC(C)C)NC(=O)[C@H](Cc3ccccc3)NC(=O)[C@H](C)NC(=O)[C@H](C)NC(=O)[C@H](CC(=O)O)NC(=O)[C@H](CC(=O)O)NC1=O)NC(=O)[C@H](CC(C)(C)C)NC(=O)[C@H](CC(=O)O)NC2=O` (stereo partly drawn) [I-1477, Ac-PL3-Asp-Npg-B5-Asp-Asp-Ala-Ala-Phe-Leu-PyrS2-3Thi-BztA-Gln-[lithocholate]-Lys-NH2], 0.148 µM.
In the case of `CC(=O)N1CCC[C@]12CC=CCCCC1(CCCC=CCCCOC(=O)N3CC[C@@](C(=O)N[C@@H](Cc4ccsc4)C(=O)N[C@@H](Cc4csc5ccccc45)C(=O)N[C@@H](CCC(N)=O)C(=O)N[C@@H](CCCCNC(=O)C45CC6(C)CC(C)(CC(C)(C6)C4)C5)C(N)=O)(C3)NC(=O)[C@H](CC(C)C)NC(=O)[C@H](Cc3ccccc3)NC(=O)[C@H](C)NC(=O)[C@H](C)NC(=O)[C@H](CC(=O)O)NC(=O)[C@H](CC(=O)O)NC1=O)NC(=O)[C@H](CC(C)(C)C)NC(=O)[C@H](CC(=O)O)NC2=O` (stereo partly drawn) [I-1479, Ac-PL3-Asp-Npg-B5-Asp-Asp-Ala-Ala-Phe-Leu-PyrS2-3Thi-BztA-Gln-[Me3AdamantC]-Lys-NH2], the IC50 was determined as 0.173 µM.
As to `CC(=O)N1CCC[C@]12CC=CCCCC1(CCCC=CCCCOC(=O)N3CC[C@@](C(=O)N[C@@H](Cc4ccsc4)C(=O)N[C@@H](Cc4csc5ccccc45)C(=O)N[C@@H](CCC(N)=O)C(N)=O)(C3)NC(=O)[C@H](CC(C)C)NC(=O)[C@H](Cc3ccccc3)NC(=O)[C@H](C)NC(=O)[C@H](CCCN3CCOCC3)NC(=O)[C@H](CC(=O)O)NC(=O)[C@H](CC(=O)O)NC1=O)NC(=O)[C@H](CC(C)(C)C)NC(=O)[C@H](CC(=O)O)NC2=O` (stereo partly drawn) [I-1481, Ac-PL3-Asp-Npg-B5-Asp-Asp-MorphNva-Ala-Phe-Leu-PyrS2-3Thi-BztA-Gln-NH2], the IC50 was determined as 0.007 µM.
For `CC(=O)N1CCC[C@]12CC=CCCCC1(CCCC=CCCCOC(=O)N3CC[C@@](C(=O)N[C@@H](Cc4ccccc4)C(=O)N[C@@H](Cc4csc5ccccc45)C(=O)N[C@@H](CCC(N)=O)C(N)=O)(C3)NC(=O)[C@H](CC(C)C)NC(=O)[C@H](Cc3ccc(-c4cccnc4)cc3)NC(=O)[C@H](C)NC(=O)[C@H](C)NC(=O)[C@H](CC(=O)O)NC(=O)[C@H](CC(=O)O)NC1=O)NC(=O)[C@H](CC(C)(C)C)NC(=O)[C@H](CC(=O)O)NC2=O` (stereo partly drawn) [I-1490, Ac-PL3-Asp-Npg-B5-Asp-Asp-Ala-Ala-[3Py]4SF-Leu-PyrS2-Phe-BztA-Gln-NH2] the value was 0.226 µM; for `CC(=O)N1CCC[C@]12CC=CCCCC1(CCCC=CCCCCCC[C@@](C)(C(=O)N[C@@H](Cc3ccccc3Cl)C(=O)N[C@@H](Cc3csc4ccccc34)C(=O)N[C@H](CO)[C@@H](C)O)NC(=O)[C@H](CCO)NC(=O)[C@H](Cc3ccccc3)NC(=O)[C@H](C)NC(=O)[C@H](C)NC(=O)[C@H](CC(=O)O)NC(=O)[C@H](CC(=O)O)NC1=O)NC(=O)[C@H](CC(C)(C)C)NC(=O)[C@H](CC(=O)O)NC2=O` (stereo partly drawn) [I-1491, Ac-PL3-Asp-Npg-B5-Asp-Asp-Ala-Ala-Phe-Hse-S8-2C1F-BztA-Thro1], 0.034 µM.
Next, `CC(=O)N1CCC[C@]12CC=CCCCC1(CCCC=CCCCOC(=O)N3CC[C@@](C(=O)N[C@@H](Cc4ccsc4)C(=O)N[C@@H](Cc4csc5ccccc45)C(=O)N[C@@H](Cc4c[nH]nn4)C(N)=O)(C3)NC(=O)[C@H](CC(C)C)NC(=O)[C@H](Cc3ccccc3)NC(=O)[C@H](C)NC(=O)[C@H](C)NC(=O)[C@H](CC(=O)O)NC(=O)[C@H](CC(=O)O)NC1=O)NC(=O)[C@H](CC(C)(C)C)NC(=O)[C@H](CC(=O)O)NC2=O` (stereo partly drawn) [I-1498, Ac-PL3-Asp-Npg-B5-Asp-Asp-Ala-Ala-Phe-Leu-PyrS2-3Thi-BztA-4TriA-NH2]: 0.048 µM.
